According to patent US6737383B1, “Herbicidal oxadiazolidines” (priority 1999, dated 2004):

Assays:
wild oat = experiment: Test B pre/postemergence wild oat; assay type: in vivo, Avena fatua
Outline: (§1)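 Herbicidal effect was estimated by eye on a ten-point control scale after plants spent twelve to sixteen days in a greenhouse following soil or foliar treatment. Foliar sprays targeted plants at one to four leaves; all doses were formulated in a non-phytotoxic solvent with surfactant.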

velvetleaf = experiment: Test B pre/postemergence velvetleaf; assay type: in vivo, Abutilon theophrasti
Outline: as §1

cocklebur = experiment: Test B pre/postemergence cocklebur; assay type: in vivo, Xanthium strumarium
Outline: as §1

rape = experiment: Test B pre/postemergence rape; assay type: in vivo, Brassica napus
Outline: as §1

surinam grass = experiment: Test B pre/postemergence surinam grass; assay type: in vivo, Brachiaria decumbens
Outline: as §1

giant foxtail = experiment: Test B pre/postemergence giant foxtail; assay type: in vivo, Setaria faberii
Outline: as §1

soybean = experiment: Test B pre/postemergence soybean; assay type: in vivo, Glycine max
Outline: as §1

blackgrass = experiment: Test B pre/postemergence blackgrass; assay type: in vivo, Alopecurus myosuroides
Outline: as §1

crabgrass = experiment: Test B pre/postemergence crabgrass; assay type: in vivo, Digitaria sanguinalis
Outline: as §1

sugar beet = experiment: Test B pre/postemergence sugar beet; assay type: in vivo, Beta vulgaris
Outline: as §1

morningglory = experiment: Test B pre/postemergence morningglory; assay type: in vivo, Ipomoea hederacea
Outline: as §1

pigweed = experiment: Test B pre/postemergence pigweed; assay type: in vivo, Amaranthus retroflexus
Outline: as §1

bedstraw = experiment: Test B pre/postemergence bedstraw; assay type: in vivo, Galium aparine
Outline: as §1

purple nutsedge = experiment: Test B pre/postemergence purple nutsedge; assay type: in vivo, Cyperus rotundus
Outline: as §1

wheat = experiment: Test B pre/postemergence wheat; assay type: in vivo, Triticum aestivum
Outline: as §1

corn = experiment: Test B pre/postemergence corn; assay type: in vivo, Zea mays
Outline: as §1

[1] = Preemergence, Rate 62 g/ha, scale of 0 to 10 where 0 is no effect and 10 is complete control
[2] = Preemergence, Rate 125 g/ha, 0 is no effect, 10 is complete control
[3] = Preemergence, Rate 250 g/ha, scale 0 to 10, 0 is no effect, 10 is complete control
[4] = Preemergence, Rate 500 g/ha, scale 0 to 10 (0 no effect, 10 complete control)
[5] = Rate 250 g/ha, Postemergence, scale 0 to 10, 0 is no effect, 10 is complete control
[6] = Rate 500 g/ha, Postemergence, scale 0 to 10
[7] = Postemergence, Rate 125 g/ha, scale of 0 to 10 where 0 is no effect and 10 is complete control
[8] = Rate 62 g/ha, Postemergence, scale of 0 to 10 where 0 is no effect and 10 is complete control

SMILES: Cc1ccccc1-n1c(=O)on(C(=O)N(c2ccc(Br)cc2)C(C)C)c1=O [Compound 175]
- Wild oats plant response rating (wild oat; [1]): 0
- Wild oats plant response rating (0 to 10 scale) (wild oat; [2]): 0
- Wild oats plant response rating (wild oat; [3]): 0
- Wild oats plant response rating (wild oat; [4]): 0
- Plant response rating, Wild oats (wild oat; [5]): 0
- Wild oats plant response rating (wild oat; [6]): 0
- Velvetleaf plant response rating (velvetleaf; [1]): 0
- Velvetleaf plant response rating (0 to 10 scale) (velvetleaf; [2]): 0
- Velvetleaf plant response rating (velvetleaf; [3]): 0
- Velvetleaf plant response rating (velvetleaf; [4]): 0
- Plant response rating, Velvetleaf (velvetleaf; [5]): 3
- Velvetleaf plant response rating (velvetleaf; [6]): 3
- Cocklebur plant response rating (cocklebur; [7]): 0
- Cocklebur plant response rating (cocklebur; [1]): 0
- Cocklebur plant response rating (0 to 10 scale) (cocklebur; [2]): 0
- Cocklebur plant response rating (cocklebur; [3]): 0
- Cocklebur plant response rating (cocklebur; [4]): 0
- Cocklebur plant response rating (cocklebur; [8]): 0
- Plant response rating, Cocklebur (cocklebur; [5]): 2
- Cocklebur plant response rating (cocklebur; [6]): 3
- Rape plant response rating (rape; [7]): 0
- Rape plant response rating (rape; [1]): 0
- Rape plant response rating (0 to 10 scale) (rape; [2]): 0
- Rape plant response rating (rape; [3]): 0
- Rape plant response rating (rape; [4]): 0
- Rape plant response rating (rape; [8]): 0
- Plant response rating, Rape (rape; [5]): 0
- Rape plant response rating (rape; [6]): 0
- B. signalgrass plant response rating (surinam grass; [7]): 0
- B. signalgrass plant response rating (surinam grass; [1]): 0
- B. signalgrass plant response rating (0 to 10 scale) (surinam grass; [2]): 0
- B. signalgrass plant response rating (surinam grass; [3]): 0
- B. signalgrass plant response rating (surinam grass; [4]): 0
- B. signalgrass plant response rating (surinam grass; [8]): 0
- Plant response rating, B. signalgrass (surinam grass; [5]): 0
- B. signalgrass plant response rating (surinam grass; Rate 500 g/ha, Postemergence, scale 0 to 10, 0 no effect, 10 complete control): 0
- Giant foxtail plant response rating (giant foxtail; [7]): 0
- Giant foxtail plant response rating (giant foxtail; [1]): 5
- Giant foxtail plant response rating (0 to 10 scale) (giant foxtail; [2]): 7
- Giant foxtail plant response rating (giant foxtail; [3]): 8
- Giant foxtail plant response rating (giant foxtail; [4]): 8
- Giant foxtail plant response rating (giant foxtail; [8]): 0
- Plant response rating, Giant foxtail (giant foxtail; [5]): 0
- Giant foxtail plant response rating (giant foxtail; [6]): 0
- Soybean plant response rating (soybean; [7]): 1
- Soybean plant response rating (soybean; [1]): 0
- Soybean plant response rating (0 to 10 scale) (soybean; [2]): 0
- Soybean plant response rating (soybean; [3]): 0
- Soybean plant response rating (soybean; [4]): 0
- Soybean plant response rating (soybean; [8]): 1
- Plant response rating, Soybean (soybean; [5]): 1
- Soybean plant response rating (soybean; [6]): 1
- Blackgrass plant response rating (blackgrass; [7]): 0
- Blackgrass plant response rating (blackgrass; [1]): 0
- Blackgrass plant response rating (0 to 10 scale) (blackgrass; [2]): 0
- Blackgrass plant response rating (blackgrass; [3]): 0
- Blackgrass plant response rating (blackgrass; [4]): 0
- Blackgrass plant response rating (blackgrass; [8]): 0
- Plant response rating, Blackgrass (blackgrass; [5]): 0
- Blackgrass plant response rating (blackgrass; [6]): 0
- Crabgrass plant response rating (crabgrass; [7]): 0
- Crabgrass plant response rating (crabgrass; [1]): 5
- Crabgrass plant response rating (0 to 10 scale) (crabgrass; [2]): 6
- Crabgrass plant response rating (crabgrass; [3]): 6
- Crabgrass plant response rating (crabgrass; [4]): 8
- Crabgrass plant response rating (crabgrass; [8]): 0
- Plant response rating, Crabgrass (crabgrass; [5]): 0
- Crabgrass plant response rating (crabgrass; [6]): 0
- Sugarbeets plant response rating (sugar beet; [7]): 0
- Sugarbeets plant response rating (sugar beet; [1]): 0
- Sugarbeets plant response rating (0 to 10 scale) (sugar beet; [2]): 0
- Sugarbeets plant response rating (sugar beet; [3]): 0
- Sugarbeets plant response rating (sugar beet; [4]): 0
- Sugarbeets plant response rating (sugar beet; [8]): 0
- Plant response rating, Sugarbeets (sugar beet; [5]): 0
- Sugarbeets plant response rating (sugar beet; [6]): 0
- Morningglory plant response rating (morningglory; [7]): 1
- Morningglory plant response rating (morningglory; [1]): 0
- Morningglory plant response rating (0 to 10 scale) (morningglory; [2]): 0
- Morningglory plant response rating (morningglory; [3]): 0
- Morningglory plant response rating (morningglory; [4]): 0
- Morningglory plant response rating (morningglory; [8]): 1
- Plant response rating, Morningglory (morningglory; [5]): 3
- Morningglory plant response rating (morningglory; [6]): 4
- Redroot pigweed plant response rating (pigweed; [7]): 0
- Redroot pigweed plant response rating (pigweed; [1]): 0
- Redroot pigweed plant response rating (0 to 10 scale) (pigweed; [2]): 0
- Redroot pigweed plant response rating (pigweed; [3]): 0
- Redroot pigweed plant response rating (pigweed; [4]): 0
- Redroot pigweed plant response rating (pigweed; [8]): 0
- Plant response rating, Redroot pigweed (pigweed; [5]): 0
- Redroot pigweed plant response rating (pigweed; [6]): 0
- Bedstraw plant response rating (bedstraw; [7]): 0
- Bedstraw plant response rating (bedstraw; [1]): 0
- Bedstraw plant response rating (0 to 10 scale) (bedstraw; [2]): 2
- Bedstraw plant response rating (bedstraw; [3]): 9
- Bedstraw plant response rating (bedstraw; [4]): 9
- Bedstraw plant response rating (bedstraw; [8]): 0
- Plant response rating, Bedstraw (bedstraw; [5]): 0
- Bedstraw plant response rating (bedstraw; [6]): 0
- Nutsedge plant response rating (purple nutsedge; [7]): 0
- Nutsedge plant response rating (purple nutsedge; [1]): 0
- Nutsedge plant response rating (0 to 10 scale) (purple nutsedge; [2]): 0
- Nutsedge plant response rating (purple nutsedge; [3]): 3
- Nutsedge plant response rating (purple nutsedge; [4]): 3
- Nutsedge plant response rating (purple nutsedge; [8]): 0
- Plant response rating, Nutsedge (purple nutsedge; [5]): 0
- Nutsedge plant response rating (purple nutsedge; [6]): 0
- Wheat plant response rating (wheat; [1]): 0
- Wheat plant response rating (0 to 10 scale) (wheat; [2]): 0
- Wheat plant response rating (wheat; [3]): 0
- Wheat plant response rating (wheat; [4]): 0
- Plant response rating, Wheat (wheat; [5]): 0
- Wheat plant response rating (wheat; [6]): 3
- Corn plant response rating (corn; [7]): 0
- Corn plant response rating (corn; [1]): 0
- Corn plant response rating (0 to 10 scale) (corn; [2]): 0
- Corn plant response rating (corn; [3]): 0
- Corn plant response rating (corn; [4]): 0
- Corn plant response rating (corn; [8]): 0
- Plant response rating, Corn (corn; [5]): 0
- Corn plant response rating (corn; [6]): 0
